In patent publication US7589123B2, “Chemical compounds” (Phytopharm PLC, priority 2006, dated 2009):

Key:
[1] = system: 5-HT-induced contractions in guinea pig ileum; assay: Inhibition of 5-HT-induced contractions in guinea pig ileum (Assay 3); settings: Cavia porcellus, 5-HT 2.6 μM, read-out: Inhibition of 5-HT-induced contraction (%)
In short: (§1)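 Ileal strips from male Duncan Hartley guinea pigs were held at 1 g tension in 32° C oxygenated Krebs (pH 7.4) with isotonic transducers. After control contractions to 5-HT (2.6 μM) or histamine (1.7 μM), compound at 3 and 30 μM was added, its own effect noted, and agonist re-applied.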

[2] = system: IL-1α-induced PGE2 release; assay: IL-1α-induced PGE2 release in human diploid lung fibroblasts (WI-38) (Assay 5); format: cell-based; settings: Homo sapiens, WI-38 cells, IL-1α 1 nM, overnight
In short: (§2)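 Cell viability was read by Alamar Blue fluorescence (530/590 nm) after 4 h at 37 °C, following an overnight 37 °C incubation of human lung fibroblasts with 1 nM IL-1α and compound (3 or 30 μM) in 10% FBS MEM, pH 7.3. Supernatant PGE2 was measured by radioimmunoassay to derive percent inhibition.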

[3] = system: histamine-induced contractions in guinea pig ileum; assay: Inhibition of histamine-induced contractions in guinea pig ileum (Assay 3); settings: Cavia porcellus, histamine 1.7 μM, read-out: Inhibition of histamine-induced contraction (%)
In short: as §1

[4] = system: WI-38 cells; assay: Viability of WI-38 cells, Alamar Blue (Assay 5); format: cell-based, human
In short: as §2

[5] = system: ovalbumin-sensitised mice; assay: Ovalbumin-sensitised mice, a chronic model of asthma in vivo (Assay 8); settings: mean ± s.e.mean, oral gavage 20 days: 2 3 mg/kg/day, 32 30 mg/kg/day, budesonide 1 mg/kg/day, montelukast 10 mg/kg/day; for Eosinophil infiltration / IL-4 concentration / IL-13 concentration: BAL fluid day 55; for Eosinophil infiltration: sensitised 192.1 ± 33.2; for IL-4 concentration: sensitised 231.2 ± 62.4; for IL-13 concentration: sensitised 241.9 ± 89.3; for Histopathology score: lung remodelling, day 55, sensitised 541.6 ± 36.1; for Increase in penH: methacholine challenge, day 54, sensitised 193.0 ± 61.7
Method: Mice (BALB/c from Harlan-Olac) were sensitised to ovalbumin using two interperitoneal injections of ovalbumin (10 μg) and alum (200 μl) on day 1 and 14 followed by a 20 min, daily exposure to a ovalbumin aerosol (5%) on days 19-23 and then a thrice weekly 20 min, exposure to a ovalbumin aerosol (5%) on days 24-55. […] On day 54, mice were placed in BUXCO four chamber whole body plethysmographs and breathing-associated pressure changes were recorded which were then used to calculate enhanced pause (penH), a measurement of airways resistance, in response to a methacholine challenge.
On day 55 the mice were killed and brochoalveolar lavage (BAL) fluid was collected and cytospins prepared to measure eosinophil infiltration. In addition, concentrations of interleukin-4 (IL-4) and interleukin-13 (IL-13) were measured in the BAL fluid. Furthermore, lung samples were taken, examined by a histopathologist and scored using a grading system to describe the degree of lung remodelling.

| Structure (SMILES) | melting point [°C] | also measured |
| --- | --- | --- |
| COc1cc(CCC(=O)CC(=O)c2ccccc2)ccc1OCCN.Cl | 80 |  |
| COc1cc(/C=C/C(=O)CC(=O)C2CC2)ccc1O [Compound 37, (E)-1-Cyclopropyl-5-(4-hydroxy-3-methoxyphenyl)-pent-4-ene-1,3-dione] | 74.5 to 79 |  |
| COc1cc(/C=C/C(=O)CC(=O)c2ccc(O)c(OC)c2)ccc1O [Compound 47, (E)-1,5-Bis-(4-hydroxy-3-methoxyphenyl)-pent-4-ene-1,3-dione] | 170 to 172 | inhibition at 3 µM ([1]; 3 μM): 6%; inhibition at 30 µM ([1]; 30 μM): 33%; inhibition at 3 µM ([2]; 3 μM): 10%; inhibition at 30 µM ([2]; 30 μM): 109%; inhibition at 3 µM ([3]; 3 μM): 5%; inhibition at 30 µM ([3]; 30 μM): 23%; Decrease in cell viability (%) ([4]; 3 μM): 1%; Decrease in cell viability (%) ([4]; 30 μM): 11% |
| COc1cc(C=CC(=O)CC(=O)c2ccc(Cl)cc2)ccc1O [Compound 53, 1-(4-Chlorophenyl)-5-(4-hydroxy-3-methoxyphenyl)pent-4-ene-1,3-dione] | 57 to 63 |  |
| COc1cc(C=CC(=O)CC(=O)c2cccc(Cl)c2)ccc1O [Compound 54, 1-(3-Chlorophenyl)-5-(4-hydroxy-3-methoxyphenyl)pent-4-ene-1,3-dione] | 54 to 55 |  |
| COc1cc(C=CC(=O)CC(=O)c2ccc(Cl)c(Cl)c2)ccc1O [Compound 55, 1-(3,4-Dichlorophenyl)-5-(4-hydroxy-3-methoxyphenyl)pent-4-ene-1,3-dione] | 78 to 80 |  |
| COc1cc(C=CC(=O)CC(=O)c2ccc(Cl)cc2Cl)ccc1O [Compound 56, 1-(2,4-Dichlorophenyl)-5-(4-hydroxy-3-methoxyphenyl)pent-4-ene-1,3-dione] | 86 to 87 |  |
| COC(=O)c1ccc(C(=O)CC(=O)/C=C/c2ccc(O)c(OC)c2)cc1 [Compound 57, Methyl 4-[(E)-1,3-dioxo-5-(4-hydroxy-3-methoxyphenyl)pent-4-enyl]benzoate] | 187 to 189 |  |
| COc1cc(/C=C/C(=O)CC(=O)Cc2ccccc2)ccc1O [Compound 60, (E)-6-(4-Hydroxy-3-methoxyphenyl)-1-phenyl-hex-5-ene-2,4-dione] | 106 |  |
| COc1cc(/C=C/C(=O)C(C)(C)C(=O)C(C)(C)C)ccc1O [Compound 91, (E)-1-(4-Hydroxy-3-methoxyphenyl)-4,4,6,6-tetramethylhept-1-ene-3,5-dione] | 98 to 99 |  |
| COc1cc(/C=C/C(=O)CC(=O)c2ccccc2Cl)ccc1O [Compound 94, (E)-1-(2-Chlorophenyl)-5(4-hydroxy-3-methoxyphenyl)pent-4-ene-1,3-dione] | 89 |  |
| COc1cc(/C=C/C(=O)CC(=O)c2ccc(Cl)c(C)c2)ccc1O [Compound 95, (E)-1-(4-Chloro-3-methylphenyl)-5-(4-hydroxy-3-methoxyphenyl)pent-4-ene-1,3-dione] | 68 to 70 |  |
| COc1cc(/C=C/C(=O)CC(=O)c2ccc(Cl)cc2C)ccc1O [Compound 96, (E)-1-(4-Chloro-2-methylphenyl)-5-(4-hydroxy-3-methoxyphenyl)pent-4-ene-1,3-dione] | 78 |  |
| COc1cc(/C=C/C(=O)CC(=O)c2ccc(C)c(Cl)c2)ccc1O [Compound 98, (E)-1-(3-Chloro-4-methylphenyl)-5-(4-hydroxy-3-methoxyphenyl)pent-4-ene-1,3-dione] | 70 to 72 |  |
| COc1cc(/C=C/C(=O)CC(=O)c2ccc(C#N)cc2)ccc1O [Compound 101, (E)-1-(4-Cyanophenyl)-5-(4-hydroxy-3-methoxyphenyl)pent-4-ene-1,3-dione] | 128 to 130 |  |
| COc1cc(/C=C/C(=O)CC(=O)c2ccc(C(C)(C)C)cc2)ccc1O [Compound 102, (E)-1-(4-tert-Butylphenyl)-5-(4-hydroxy-3-methoxyphenyl)pent-4-ene-1,3-dione] | 87 to 88 |  |
| COc1cc(/C=C/C(=O)CC(=O)c2ccccc2C)ccc1O [Compound 103, (E)-5-(4-Hydroxy-3-methoxyphenyl)-1-o-tolylpent-4-ene-1,3-dione] | 96 |  |
| COc1cc(/C=C/C(=O)CC(=O)c2cccc(C)c2)ccc1O [Compound 104, (E)-5-(4-Hydroxy-3-methoxyphenyl)-1-m-tolylpent-4-ene-1,3-dione] | 52 |  |
| COc1cc(/C=C/C(=O)CC(=O)c2ccc3ccccc3c2)c(Cl)cc1O [Compound 105, (E)-5-(2-Chloro-4-hydroxy-5-methoxyphenyl)-1-(naphthalene-3-yl)pent-4-ene-1,3-dione] | 134 |  |
| CCOc1cc(/C=C/C(=O)CC(=O)c2ccccc2)ccc1O [Compound 106, (E)-5-(3-Ethoxy-4-hydroxyphenyl)-1-phenylpent-4-ene-1,3-dione] | 110 to 112 |  |
| CCCC1O[C@@H]2C[C@H]3[C@@H]4CCC5=CC(=O)C=C[C@]5(C)[C@H]4[C@@H](O)C[C@]3(C)[C@]2(C(=O)CO)O1 (some centres unmarked) [budesonide, reference compound] |  | Eosinophil infiltration [5]: 38.4 ± 5.4% of control; IL-4 concentration [5]: 144.2 ± 59.7% of control; IL-13 concentration [5]: 199.3 ± 110.1% of control; Histopathology score [5]: 200.0 ± 27.6% of control; Increase in penH [5]: 184.6 ± 27.7% of control |
| CC(C)(O)c1ccccc1CC[C@@H](SCC1(CC(=O)O)CC1)c1cccc(/C=C/c2ccc3ccc(Cl)cc3n2)c1 [montelukast, reference compound] |  | Eosinophil infiltration [5]: 124.3 ± 24.8% of control; IL-4 concentration [5]: 58.2 ± 37.2% of control; IL-13 concentration [5]: 73.2 ± 55.3% of control; Histopathology score [5]: 450.0 ± 38.25% of control; Increase in penH [5]: 187.6 ± 31.9% of control |
